Measured values published in patent US20040229230A1, “Method for gene isolation by Cre-trap cloning” (priority 2002, published 2004).

Experiments:
[1] = tested on: parent BW cell line (BW5147 murine thymoma); experiment: Culture of parent BW cell line in ganciclovir (HSVTK activity assessment); format: cell-based; conditions: 5 μM ganciclovir; parent BW cell line without HSVTK
Procedure: (§1) BW subclones with varying levels of GFPCre expression were tested for functional Cre recombinase and HSVTK activity. The pCT.1 (pCT.1^AMP) vector was transiently transfected into each cell line followed by recovery and analysis of plasmid configuration (pCT.1^AMP vs. pCT.1^CAT). Maximal conversion would result in equimolar ratios of pCT.1^AMP and pCT.1^CAT due to the reversible nature of the reaction. […] The kinetics of conversion in cell lines expressing different levels of GFPCre was evaluated. To assess HSVTK activity, all of the cell lines were cultured in 5 μM ganciclovir. […] No spontaneous revertants were isolated, which, given the culture conditions, puts the spontaneous reversion rate at <10^−8.

[2] = tested on: GFPCre:IRES:HSVTK expressing clones (BW5147 subclones); experiment: Culture of GFPCre:IRES:HSVTK expressing BW clones in ganciclovir (HSVTK activity assessment); format: cell-based, murine; conditions: 5 μM ganciclovir
Description: 2.1 GFPCre:IRES:HSVTK cassette function: A retroviral vector was generated with the cDNA encoding the GFPCre fusion protein followed by an […] ribosomal entry site (IRES) and the cDNA encoding HSVTK (FIG. 2). In addition, the upstream activating sequence (UAS) which binds the Gal4 transcriptional trans-activator was cloned upstream of the GFPCre cDNA (FIG. 2). The BW5147 thymoma was infected with this retrovirus, and subclones (BW-1, 5, 41 and 50) expressing different levels of the GFPCre fusion protein were identified by flow cytometry (FIG. 3).
as §1

## Nc1nc(O)c2ncn(COC(CO)CO)c2n1 [ganciclovir]
[1]
  growth in media with ganciclovir: normal growth
[2]
  growth/survival in media with ganciclovir: all died
